In test [1] the test system is STAT3 phosphorylation by IL-6 in TF-1 cells. Nature of the test: JAK cellular assay: STAT3 phosphorylation by IL-6 in TF-1 cells (HTRF). It is filed as cell-based. Conditions: IL-6 30 ng/ml, pSTAT3 HTRF, read-out: Cell Based Assay (μM) TF-1/IL-6/pSTAT3. The protocol: TF-1 cells were starved overnight in OptiMEM medium with 0.5% charcoal stripped fetal bovine serum, 0.1 mM nonessential amino acids (NEAA), 1 mM sodium pyruvate and without phenol red in CO2 incubator maintained at 37° c. Next day, cells were resuspended in RPMI without phenol red and dispensed into a 96 well plate at a final cell density of 1,20,000 cells per well. Compounds were diluted in DMSO and added to cells and incubated for 30 minutes in CO2 incubator maintained at 37° c. Final DMSO concentration in cell based assay was 0.2%. Human recombinant cytokines, IL-6 (30 ng/ml) and GMCSF (5 ng/ml) were added to the plate containing cells along with compound and incubated for 20 minutes with gentle tapping at every 5 minutes once. Compound mediated effects on STAT3 and STAT5 phosphorylation was measured in the lysates prepared by using CISBIO pSTAT3 and pSTAT5 detection kits by HTRF method. Background signal obtained from cells which were not activated with cytokines, was subtracted from vehicle controls and compound treated wells.
(In TR-FRET formats the signal depends on donor and acceptor labels being close together.)

For test [2], the target named is T1, Recombinant JAK3 (Homo sapiens, UniProt P52333).
T1 construct: purchased Carna Biosciences
T1 sequence (P52333 1-1124): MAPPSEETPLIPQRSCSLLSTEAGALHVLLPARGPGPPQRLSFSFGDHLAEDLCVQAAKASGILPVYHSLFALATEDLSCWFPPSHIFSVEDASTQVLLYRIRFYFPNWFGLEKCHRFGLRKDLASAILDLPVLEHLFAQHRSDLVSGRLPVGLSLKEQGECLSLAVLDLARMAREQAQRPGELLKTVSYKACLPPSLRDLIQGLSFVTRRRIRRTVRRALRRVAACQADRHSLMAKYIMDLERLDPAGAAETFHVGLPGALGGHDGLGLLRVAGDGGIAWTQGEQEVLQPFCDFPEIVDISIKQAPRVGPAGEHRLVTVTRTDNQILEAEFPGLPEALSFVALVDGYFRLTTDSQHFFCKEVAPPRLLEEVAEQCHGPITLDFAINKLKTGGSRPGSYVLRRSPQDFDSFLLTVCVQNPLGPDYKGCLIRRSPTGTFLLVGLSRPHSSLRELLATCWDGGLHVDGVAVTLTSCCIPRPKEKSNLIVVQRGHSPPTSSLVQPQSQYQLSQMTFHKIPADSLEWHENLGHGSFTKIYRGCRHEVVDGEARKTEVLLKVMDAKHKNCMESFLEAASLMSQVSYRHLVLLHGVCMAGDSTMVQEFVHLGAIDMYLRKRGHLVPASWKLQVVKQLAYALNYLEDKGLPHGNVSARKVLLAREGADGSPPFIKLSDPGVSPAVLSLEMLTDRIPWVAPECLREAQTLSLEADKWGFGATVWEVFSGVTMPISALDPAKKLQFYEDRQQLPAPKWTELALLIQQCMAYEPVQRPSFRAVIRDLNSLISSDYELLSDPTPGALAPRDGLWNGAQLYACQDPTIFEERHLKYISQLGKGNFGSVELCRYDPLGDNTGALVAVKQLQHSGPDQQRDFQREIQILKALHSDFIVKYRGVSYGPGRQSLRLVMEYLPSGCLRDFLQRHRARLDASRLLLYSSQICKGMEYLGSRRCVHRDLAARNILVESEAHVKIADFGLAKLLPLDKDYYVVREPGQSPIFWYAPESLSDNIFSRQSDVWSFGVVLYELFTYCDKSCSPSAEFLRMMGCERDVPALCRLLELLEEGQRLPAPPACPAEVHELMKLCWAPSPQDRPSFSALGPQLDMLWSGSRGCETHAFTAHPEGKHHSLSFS
Nature of the test: JAK biochemical assay (LANCE Ultra TR-FRET), JAK3. The conditions noted are these: recombinant JAK3, TR-FRET; read-out: Biochemical Assay (μM) JAK3. The procedure, abridged:
(§1)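 Kinase reactions ran in buffer of 50 mM HEPES pH 7.5 with 1 mM EGTA, 10 mM MgCl2, 2 mM DTT and 0.01% Tween-20, using recombinant enzyme. Phosphorylated ULight substrate was detected by TR-FRET, and compound effect expressed as % inhibition against vehicle.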

Test [3] has as its target T2, Recombinant JAK2 (Homo sapiens, UniProt O60674).
T2 construct: purchased Carna Biosciences
Nature of the test: JAK biochemical assay (LANCE Ultra TR-FRET), JAK2. Conditions: recombinant JAK2, TR-FRET; read-out: Biochemical Assay (μM) JAK2. The procedure, abridged:
as §1

Test [4] concerns the target T3, Recombinant TYK2 (Homo sapiens, UniProt P29597).
T3 construct: purchased Carna Biosciences
Nature of the test: JAK biochemical assay (LANCE Ultra TR-FRET), TYK2. The conditions noted are these: recombinant TYK2, TR-FRET; read-out: Biochemical Assay (μM) TYK2. In outline:
as §1

Test [5] concerns the target T4, Recombinant JAK1 (Homo sapiens, UniProt P23458).
T4 construct: purchased Carna Biosciences
Nature of the test: JAK biochemical assay (LANCE Ultra TR-FRET), JAK1. Conditions: recombinant JAK1, TR-FRET; read-out: Biochemical Assay (μM) JAK1. The procedure, abridged:
as §1

Structures can show the parent of a compound that is named as a salt. Where two headings read alike, the source gives them in different places.

T3 sequence (P29597 whole entry): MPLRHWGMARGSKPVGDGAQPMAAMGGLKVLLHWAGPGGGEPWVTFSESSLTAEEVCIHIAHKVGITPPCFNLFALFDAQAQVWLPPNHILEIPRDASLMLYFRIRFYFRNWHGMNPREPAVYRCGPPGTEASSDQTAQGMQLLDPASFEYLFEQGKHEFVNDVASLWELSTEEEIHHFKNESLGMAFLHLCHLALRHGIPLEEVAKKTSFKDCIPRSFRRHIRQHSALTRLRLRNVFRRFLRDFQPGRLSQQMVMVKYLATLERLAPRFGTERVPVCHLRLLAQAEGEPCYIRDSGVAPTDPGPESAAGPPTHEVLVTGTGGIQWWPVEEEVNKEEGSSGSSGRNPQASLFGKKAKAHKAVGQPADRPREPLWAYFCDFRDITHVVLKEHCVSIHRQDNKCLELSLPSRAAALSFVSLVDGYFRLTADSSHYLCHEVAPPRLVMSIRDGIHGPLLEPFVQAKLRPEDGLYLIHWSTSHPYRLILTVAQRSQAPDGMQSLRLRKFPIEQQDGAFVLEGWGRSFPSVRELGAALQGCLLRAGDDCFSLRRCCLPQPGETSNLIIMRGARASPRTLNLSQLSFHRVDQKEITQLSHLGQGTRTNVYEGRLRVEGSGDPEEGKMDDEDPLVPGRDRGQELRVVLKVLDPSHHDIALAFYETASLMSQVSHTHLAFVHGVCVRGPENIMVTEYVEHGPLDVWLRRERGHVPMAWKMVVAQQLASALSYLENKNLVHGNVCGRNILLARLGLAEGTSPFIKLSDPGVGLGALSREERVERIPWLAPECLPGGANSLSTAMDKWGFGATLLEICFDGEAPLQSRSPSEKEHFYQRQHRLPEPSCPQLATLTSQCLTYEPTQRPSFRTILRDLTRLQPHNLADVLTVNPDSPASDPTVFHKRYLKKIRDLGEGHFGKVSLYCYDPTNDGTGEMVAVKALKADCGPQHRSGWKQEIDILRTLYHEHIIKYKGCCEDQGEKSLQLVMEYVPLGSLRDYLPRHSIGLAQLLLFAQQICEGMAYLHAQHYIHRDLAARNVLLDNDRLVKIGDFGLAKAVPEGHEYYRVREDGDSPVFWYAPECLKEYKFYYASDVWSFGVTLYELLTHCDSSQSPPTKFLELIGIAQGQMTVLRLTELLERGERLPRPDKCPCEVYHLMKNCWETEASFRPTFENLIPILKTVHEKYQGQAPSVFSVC
T2 sequence (O60674 whole entry): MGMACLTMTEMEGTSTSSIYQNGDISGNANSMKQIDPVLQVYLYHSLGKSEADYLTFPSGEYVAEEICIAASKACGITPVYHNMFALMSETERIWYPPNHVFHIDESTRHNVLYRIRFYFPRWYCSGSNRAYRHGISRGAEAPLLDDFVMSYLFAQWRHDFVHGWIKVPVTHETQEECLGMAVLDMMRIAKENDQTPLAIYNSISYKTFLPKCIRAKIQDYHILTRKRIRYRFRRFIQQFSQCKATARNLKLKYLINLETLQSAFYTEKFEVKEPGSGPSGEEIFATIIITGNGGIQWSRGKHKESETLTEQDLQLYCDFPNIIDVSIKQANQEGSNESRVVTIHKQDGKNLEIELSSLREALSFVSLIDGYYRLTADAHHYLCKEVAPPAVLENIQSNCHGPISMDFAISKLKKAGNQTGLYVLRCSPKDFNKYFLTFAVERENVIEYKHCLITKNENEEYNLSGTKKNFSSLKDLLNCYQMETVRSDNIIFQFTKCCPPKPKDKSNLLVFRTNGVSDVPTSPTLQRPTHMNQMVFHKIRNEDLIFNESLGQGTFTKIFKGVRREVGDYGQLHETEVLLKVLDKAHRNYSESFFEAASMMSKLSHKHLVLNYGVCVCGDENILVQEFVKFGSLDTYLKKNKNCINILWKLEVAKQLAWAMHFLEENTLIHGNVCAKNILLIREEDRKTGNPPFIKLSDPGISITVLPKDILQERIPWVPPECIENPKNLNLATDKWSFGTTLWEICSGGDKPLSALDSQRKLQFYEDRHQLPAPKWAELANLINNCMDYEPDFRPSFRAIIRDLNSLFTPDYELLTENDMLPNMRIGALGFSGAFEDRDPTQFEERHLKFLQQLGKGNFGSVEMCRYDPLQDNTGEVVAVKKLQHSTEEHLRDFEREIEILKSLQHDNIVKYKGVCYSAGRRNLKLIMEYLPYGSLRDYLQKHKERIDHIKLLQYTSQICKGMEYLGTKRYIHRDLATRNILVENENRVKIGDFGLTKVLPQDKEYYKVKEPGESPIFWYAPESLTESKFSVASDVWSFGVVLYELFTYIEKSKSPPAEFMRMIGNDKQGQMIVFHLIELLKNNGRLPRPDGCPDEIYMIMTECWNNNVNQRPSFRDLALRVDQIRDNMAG
T4 sequence (P23458 whole entry): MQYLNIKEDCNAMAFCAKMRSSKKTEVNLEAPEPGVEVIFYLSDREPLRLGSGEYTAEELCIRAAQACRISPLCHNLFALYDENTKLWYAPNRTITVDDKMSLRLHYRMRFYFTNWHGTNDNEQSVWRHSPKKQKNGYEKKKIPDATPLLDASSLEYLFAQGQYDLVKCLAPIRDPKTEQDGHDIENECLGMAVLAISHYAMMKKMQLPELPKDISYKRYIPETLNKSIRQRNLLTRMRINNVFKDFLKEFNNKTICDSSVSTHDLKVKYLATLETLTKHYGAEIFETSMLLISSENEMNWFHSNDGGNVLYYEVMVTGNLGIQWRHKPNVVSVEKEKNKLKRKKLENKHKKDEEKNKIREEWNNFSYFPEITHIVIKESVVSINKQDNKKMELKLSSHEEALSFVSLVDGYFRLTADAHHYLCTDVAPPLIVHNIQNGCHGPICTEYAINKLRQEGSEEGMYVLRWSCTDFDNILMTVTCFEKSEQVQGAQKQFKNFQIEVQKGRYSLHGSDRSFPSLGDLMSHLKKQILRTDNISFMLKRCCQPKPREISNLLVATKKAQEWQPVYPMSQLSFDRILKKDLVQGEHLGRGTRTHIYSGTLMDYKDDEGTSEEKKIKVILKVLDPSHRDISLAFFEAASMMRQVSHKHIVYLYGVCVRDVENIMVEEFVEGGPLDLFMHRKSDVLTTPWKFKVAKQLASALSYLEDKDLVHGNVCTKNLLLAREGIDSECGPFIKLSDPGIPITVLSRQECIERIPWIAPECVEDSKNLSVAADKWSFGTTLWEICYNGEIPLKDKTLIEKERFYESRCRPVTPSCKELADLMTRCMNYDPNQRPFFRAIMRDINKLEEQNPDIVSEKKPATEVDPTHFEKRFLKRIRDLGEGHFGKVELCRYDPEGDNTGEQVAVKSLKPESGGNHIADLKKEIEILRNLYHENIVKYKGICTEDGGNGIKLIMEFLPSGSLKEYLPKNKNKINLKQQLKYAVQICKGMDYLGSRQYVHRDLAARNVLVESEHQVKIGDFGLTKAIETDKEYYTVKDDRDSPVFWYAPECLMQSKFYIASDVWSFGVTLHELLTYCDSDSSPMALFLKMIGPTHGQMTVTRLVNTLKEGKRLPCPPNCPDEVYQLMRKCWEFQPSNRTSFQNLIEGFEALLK

`N#CCC(=O)N1CC(C(O)(c2ccc(-n3cc(-c4ccnc5[nH]cnc45)cn3)nc2)C(F)(F)F)C1` (stereo not drawn) [Example 1245, 3-(3-(1-(6-(4-(3H-imidazo[4,5-b]pyridin-7-yl)-1H-pyrazol-1-yl)pyridin-3-yl)-2,2,2-trifluoro-1-hydroxyethyl)azetidin-1-yl)-3-oxopropanenitrile]: the IC50 in test [1] (Homo sapiens, TF-1, TF-1 cells) was greater than 1 µM; in test [2] it was greater than 0.003 µM; in test [3] it was greater than 0.03 µM; in test [4], greater than 1 µM; in test [5], greater than 0.001 µM.
As to `CC(C)NCC(c1ccc(-n2cc(-c3ccnc4[nH]cnc34)cn2)nc1)C(F)(F)F` (stereo not drawn) [Example 1218, 2-(6-(4-(3H-imidazo[4,5-b]pyridin-7-yl)-1H-pyrazol-1-yl)pyridin-3-yl)-3,3,3-trifluoro-N-isopropylpropan-1-amine], the IC50 in test [1] (Homo sapiens, TF-1, TF-1 cells) was greater than 0.5 µM.
For `N#CC1CCCCC1NC(=O)n1cc(-c2ccnc3[nH]cnc23)cn1` (stereo not drawn) [Example 1066, N-(2-cyanocyclohexyl)-4-(3H-imidazo[4,5-b]pyridin-7-yl)-1H-pyrazole-1-carboxamide], the IC50 in test [1] (Homo sapiens, TF-1, TF-1 cells) was greater than 10 µM; in test [2] it was greater than 0.5 µM; in test [3] it was greater than 0.5 µM; in test [4], greater than 0.5 µM.
Take `CC(C)NCC[C@H](c1ccc(-n2cc(-c3ccnc4[nH]cnc34)cn2)nc1)C(F)(F)F` [Example 1208, (R)-3-(6-(4-(3H-imidazo[4,5-b]pyridin-7-yl)-1H-pyrazol-1-yl)pyridin-3-yl)-4,4,4-trifluoro-N-isopropylbutan-1-amine]: the IC50 in test [1] (Homo sapiens, TF-1, TF-1 cells) was greater than 1 µM; in test [2], 0.005 µM; in test [3] it was 0.01 µM; in test [4] it was greater than 0.5 µM.
With `O=C(NCC(F)(F)F)N1CCN(c2ccnc3[nH]c(-c4ccccc4)nc23)CC1` [Example 1022, N-(2,2,2-trifluoroethyl)-4-(2-phenyl-3H-imidazo[4,5-b]pyridin-7-yl)piperazine-1-carboxamide], the IC50 was greater than 10 µM in test [1] (Homo sapiens, TF-1, TF-1 cells); less than 0.5 µM in test [2]; less than 0.5 µM in test [3]; less than 0.5 µM in test [4]; less than 0.5 µM in test [5].
For the compound `CC(NC(=O)n1cc(-c2ccnc3[nH]c(=O)[nH]c23)cn1)C(F)(F)F` (stereo not drawn) [Example 1030, N-(1,1,1-trifluoropropan-2-yl)-4-(2,3-dihydro-2-oxo-1H-imidazo[4,5-b]pyridin-7-yl)-1H-pyrazole-1-carboxamide], the IC50 in test [1] (Homo sapiens, TF-1, TF-1 cells) was 10 µM; in test [2] it was 0.43 µM; in test [3] it was 0.066 µM; in test [4], 0.093 µM; in test [5], 0.039 µM.
The like results for `CC1(C)CN(C(=O)n2cc(-c3ccnc4[nH]c(=O)[nH]c34)cn2)C1` [Example 1037, 7-(1-(3,3-dimethylazetidine-1-carbonyl)-1H-pyrazol-4-yl)-1,3-dihydro-2H-imidazo[4,5-b]pyridin-2-one] were, in that order, greater than 10 µM, greater than 1 µM, greater than 1 µM, greater than 0.5 µM and greater than 0.5 µM.
Turning to `COC(c1ccc(-n2cc(-c3ccnc4[nH]cnc34)cn2)nc1)(C1CCN(C)CC1)C(F)(F)F` (stereo not drawn) [Example 1244, 7-(1-(5-(2,2,2-trifluoro-1-methoxy-1-(1-methylpiperidin-4-yl)ethyl)pyridin-2-yl)-1H-pyrazol-4-yl)-3H-imidazo[4,5-b]pyridine], the IC50 was greater than 1 µM in test [1] (Homo sapiens, TF-1, TF-1 cells); greater than 0.1 µM in test [2]; greater than 0.1 µM in test [3]; greater than 1 µM in test [4]; less than 0.1 µM in test [5].
Consider `N#CCC(NC(=O)n1cc(-c2ccnc3[nH]c(=O)[nH]c23)cn1)C1CCCC1` (stereo not drawn) [Example 1039, N-(2-cyano-1-cyclopentylethyl)-4-(2,3-dihydro-2-oxo-1H-imidazo[4,5-b]pyridin-7-yl)-1H-pyrazole-1-carboxamide], for which the IC50 is 10 µM in test [1] (Homo sapiens, TF-1, TF-1 cells); less than 0.5 µM in test [3]; less than 0.5 µM in test [4]; less than 0.5 µM in test [5].
`N#CCc1ccc(-n2cc(-c3ccnc4[nH]cnc34)cn2)nc1` [Example 1082, 2-(6-(4-(3H-imidazo[4,5-b]pyridin-7-yl)-1H-pyrazol-1-yl)pyridin-3-yl)acetonitrile hydrochloride]: the IC50 in test [1] (TF-1 cells, hydrochloride) was greater than 1 µM; in test [2], less than 0.5 µM; in test [3] it was less than 0.5 µM; in test [5] it was less than 0.5 µM.
Consider `COCCC(C#N)NC(=O)n1cc(-c2ccnc3[nH]cnc23)cn1` (stereo not drawn) [Example 1071, N-(1-cyano-3-methoxypropyl)-4-(3H-imidazo[4,5-b]pyridin-7-yl)-1H-pyrazole-1-carboxamide], for which the IC50 in test [1] (Homo sapiens, TF-1, TF-1 cells) was greater than 10 µM; in test [2] it was greater than 0.5 µM; in test [3] it was greater than 0.5 µM; in test [4], greater than 0.5 µM; in test [5] it was greater than 0.5 µM.
`O=S(=O)(CCC(c1ccc(-n2cc(-c3ccnc4[nH]cnc34)cn2)nc1)C(F)(F)F)C1CC1` (stereo not drawn) [Example 1139, 7-(1-(5-(4-(cyclopropylsulfonyl)-1,1,1-trifluorobutan-2-yl)pyridin-2-yl)-1H-pyrazol-4-yl)-3H-imidazo[4,5-b]pyridine]: the IC50 in test [1] (Homo sapiens, TF-1, TF-1 cells) is 1 µM; in test [2] it was greater than 0.1 µM; in test [3], greater than 0.5 µM; in test [4], greater than 1 µM; in test [5] it was greater than 0.5 µM.
For `O=C(NCC(F)(F)F)Nc1ccc(-c2ccnc3[nH]c(=O)[nH]c23)cn1` [Example 1005, 1-(2,2,2-trifluoroethyl)-3-(5-(2,3-dihydro-2-oxo-1H-imidazo[4,5-b]pyridin-7-yl)pyridin-2-yl)urea], the IC50 in test [1] (Homo sapiens, TF-1, TF-1 cells) was greater than 10 µM; in test [4], greater than 1 µM.
On to `CS(=O)(=O)CCC(F)c1ccc(-n2cc(-c3ccnc4[nH]cnc34)cn2)nc1` (stereo not drawn) [Example 1162, 7-(1-(5-(1-fluoro-3-(methylsulfonyl)propyl)pyridin-2-yl)-1H-pyrazol-4-yl)-3H-imidazo[4,5-b]pyridine], for which the IC50 was greater than 0.5 µM in test [2], greater than 0.5 µM in test [3], greater than 1 µM in test [4] and greater than 0.5 µM in test [5].
For the compound `CS(=O)(=O)CCC(c1cccc(-n2cc(-c3ccnc4[nH]cnc34)cn2)n1)C(F)(F)F` (stereo not drawn) [Example 1175, 7-(1-(6-(1,1,1-trifluoro-4-(methylsulfonyl)butan-2-yl)pyridin-2-yl)-1H-pyrazol-4-yl)-3H-imidazo[4,5-b]pyridine], the IC50 in test [2], in test [3], in test [4] and in test [5] was greater than 1 µM throughout.
Turning to `COc1cc(-n2cc(-c3ccnc4[nH]cnc34)cn2)ccc1CC#N` [Example 1105, 2-(4-(4-(3H-imidazo[4,5-b]pyridin-7-yl)-1H-pyrazol-1-yl)-2-methoxyphenyl)acetonitrile], the IC50 was greater than 0.5 µM in test [2], greater than 0.5 µM in test [3], greater than 10 µM in test [4] and greater than 1 µM in test [5].

Values taken from patent publication US12516056B2, “Compounds for inhibition of janus kinase 1” (MANKIND PHARMA LTD., priority 2019, dated 2026).
